Tests used:
surinam grass = assay: Test B pre/postemergence surinam grass; format: in vivo, Brachiaria decumbens
How it was run: (§1)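 Herbicidal effect was estimated by eye on a ten-point control scale after plants spent twelve to sixteen days in a greenhouse following soil or foliar treatment. Foliar sprays targeted plants at one to four leaves; all doses were formulated in a non-phytotoxic solvent with surfactant.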

bedstraw = assay: Test B pre/postemergence bedstraw; format: in vivo, Galium aparine
How it was run: as §1

crabgrass = assay: Test B pre/postemergence crabgrass; format: in vivo, Digitaria sanguinalis
How it was run: as §1

purple nutsedge = assay: Test B pre/postemergence purple nutsedge; format: in vivo, Cyperus rotundus
How it was run: as §1

velvetleaf = assay: Test B pre/postemergence velvetleaf; format: in vivo, Abutilon theophrasti
How it was run: as §1

blackgrass = assay: Test B pre/postemergence blackgrass; format: in vivo, Alopecurus myosuroides
How it was run: as §1

duck salad = assay: Test B flood test duck salad; format: in vivo, Heteranthera limosa
How it was run: (§2)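 Flood test on plants grown to the 2-leaf stage; treated plants kept in greenhouse twelve to sixteen days, then visually rated against controls on a 0 (no effect) to 10 (complete control) scale.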

smallflower flatsedge = assay: Test B flood test smallflower flatsedge; format: in vivo, Cyperus difformis
How it was run: as §2

rape = assay: Test B pre/postemergence rape; format: in vivo, Brassica napus
How it was run: as §1

giant foxtail = assay: Test B pre/postemergence giant foxtail; format: in vivo, Setaria faberii
How it was run: as §1

rice = assay: Test B flood test rice; format: in vivo, Oryza sativa
How it was run: as §2

wild oat = assay: Test B pre/postemergence wild oat; format: in vivo, Avena fatua
How it was run: as §1

corn = assay: Test B pre/postemergence corn; format: in vivo, Zea mays
How it was run: as §1

bamyardgrass = assay: Test B flood test barnyardgrass; format: in vivo, Echinochloa crus-galli
How it was run: as §2

wheat = assay: Test B pre/postemergence wheat; format: in vivo, Triticum aestivum
How it was run: as §1

sugar beet = assay: Test B pre/postemergence sugar beet; format: in vivo, Beta vulgaris
How it was run: as §1

[1] = Preemergence, Rate 62 g/ha, scale of 0 to 10 where 0 is no effect and 10 is complete control
[2] = Preemergence, Rate 500 g/ha, scale of 0 to 10 where 0 is no effect and 10 is complete control
[3] = Rate 62 g/ha, Postemergence, scale of 0 to 10 where 0 is no effect and 10 is complete control
[4] = Rate 125 g/ha, Preemergence, scale of 0 to 10 where 0 is no effect and 10 is complete control
[5] = Rate 500 g/ha, Postemergence, scale 0 to 10, 0 no effect, 10 complete control
[6] = Preemergence, Rate 250 g/ha, scale of 0 to 10 where 0 is no effect and 10 is complete control
[7] = Rate 125 g/ha, Postemergence, scale 0 to 10
[8] = Rate 62 g/ha, headed Pre-emergence (flood test species), scale 0 to 10 (0 no effect, 10 complete control)
[9] = Rate 125 g/ha, Pre-emergence, flood test species, scale 0 to 10 where 0 is no effect and 10 is complete control
[10] = Rate 250 g/ha, Pre-emergence, flood-test species, scale 0 to 10, 0 is no effect, 10 is complete control
[11] = Rate 500 g/ha, Pre-emergence, flood test species, scale 0 to 10 (0 no effect, 10 complete control)

## Cc1ccccc1-n1c(=O)on(C(=O)N(c2ccc(C(C)C)cc2)C(C)C)c1=O [Compound 231]
Surinam grass; [1]
  B. signalgrass plant response rating: 0
Surinam grass; Preemergence, Rate 250 g/ha, scale 0 to 10, 0 is no effect, 10 is complete control
  B. signalgrass plant response rating: 0
Surinam grass; [2]
  Plant response rating, B. signalgrass: 0
Surinam grass; [3]
  B. signalgrass plant response rating: 0
Surinam grass; Rate 125 g/ha, Postemergence, scale 0 (no effect) to 10 (complete control)
  B. signalgrass plant response rating: 0
Surinam grass; [4]
  B. signalgrass plant response rating: 0
Surinam grass; Rate 250 g/ha, Postemergence
  Plant response rating (0 to 10; 0 is no effect, 10 is complete control), B. signalgrass: 0
Surinam grass; [5]
  B. signalgrass plant response rating: 0
bedstraw; [1]
  Bedstraw plant response rating: 0
bedstraw; [6]
  Bedstraw plant response rating: 0
bedstraw; [2]
  Plant response rating, Bedstraw: 0
bedstraw; [3]
  Bedstraw plant response rating: 0
bedstraw; [7]
  Bedstraw plant response rating: 0
bedstraw; [4]
  Bedstraw plant response rating: 0
bedstraw; Rate 250 g/ha, Postemergence
  Plant response rating (0 to 10; 0 is no effect, 10 is complete control), Bedstraw: 0
bedstraw; [5]
  Bedstraw plant response rating: 0
crabgrass; [1]
  Crabgrass plant response rating: 0
crabgrass; [6]
  Crabgrass plant response rating: 0
crabgrass; [2]
  Plant response rating, Crabgrass: 7
crabgrass; [3]
  Crabgrass plant response rating: 0
crabgrass; [7]
  Crabgrass plant response rating: 0
crabgrass; [4]
  Crabgrass plant response rating: 0
crabgrass; Rate 250 g/ha, Postemergence
  Plant response rating (0 to 10; 0 is no effect, 10 is complete control), Crabgrass: 0
crabgrass; [5]
  Crabgrass plant response rating: 2
Purple nutsedge; [1]
  Nutsedge plant response rating: 0
Purple nutsedge; [6]
  Nutsedge plant response rating: 0
Purple nutsedge; [2]
  Plant response rating, Nutsedge: 0
Purple nutsedge; [3]
  Nutsedge plant response rating: 0
Purple nutsedge; [7]
  Nutsedge plant response rating: 0
Purple nutsedge; [4]
  Nutsedge plant response rating: 0
Purple nutsedge; Rate 250 g/ha, Postemergence
  Plant response rating (0 to 10; 0 is no effect, 10 is complete control), Nutsedge: 0
Purple nutsedge; [5]
  Nutsedge plant response rating: 0
velvetleaf; [1]
  Velvetleaf plant response rating: 0
velvetleaf; [6]
  Velvetleaf plant response rating: 0
velvetleaf; [2]
  Plant response rating, Velvetleaf: 0
velvetleaf; [3]
  Velvetleaf plant response rating: 0
velvetleaf; [7]
  Velvetleaf plant response rating: 0
velvetleaf; [4]
  Velvetleaf plant response rating: 0
velvetleaf; Rate 250 g/ha, Postemergence
  Plant response rating (0 to 10; 0 is no effect, 10 is complete control), Velvetleaf: 0
velvetleaf; [5]
  Velvetleaf plant response rating: 0
blackgrass; [1]
  Blackgrass plant response rating: 0
blackgrass; [6]
  Blackgrass plant response rating: 0
blackgrass; [2]
  Plant response rating, Blackgrass: 0
blackgrass; [3]
  Blackgrass plant response rating: 0
blackgrass; [7]
  Blackgrass plant response rating: 0
blackgrass; [4]
  Blackgrass plant response rating: 0
blackgrass; Rate 250 g/ha, Postemergence
  Plant response rating (0 to 10; 0 is no effect, 10 is complete control), Blackgrass: 0
blackgrass; [5]
  Blackgrass plant response rating: 0
Duck salad; [8]
  Ducksalad plant response rating: 0
Duck salad; [9]
  Ducksalad plant response rating: 0
Duck salad; [10]
  Ducksalad plant response rating: 0
Duck salad; [11]
  Ducksalad plant response rating: 0
Smallflower flatsedge; [8]
  S. Flatsedge plant response rating: 0
Smallflower flatsedge; [9]
  S. Flatsedge plant response rating: 0
Smallflower flatsedge; [10]
  S. Flatsedge plant response rating: 0
Smallflower flatsedge; [11]
  S. Flatsedge plant response rating: 0
rape; [1]
  Rape plant response rating: 0
rape; [6]
  Rape plant response rating: 0
rape; [2]
  Plant response rating, Rape: 0
rape; [3]
  Rape plant response rating: 0
rape; [7]
  Rape plant response rating: 0
rape; [4]
  Rape plant response rating: 0
rape; Rate 250 g/ha, Postemergence
  Plant response rating (0 to 10; 0 is no effect, 10 is complete control), Rape: 0
rape; [5]
  Rape plant response rating: 0
Giant foxtail; [1]
  Giant foxtail plant response rating: 0
Giant foxtail; [6]
  Giant foxtail plant response rating: 3
Giant foxtail; [2]
  Plant response rating, Giant foxtail: 8
Giant foxtail; [3]
  Giant foxtail plant response rating: 0
Giant foxtail; [7]
  Giant foxtail plant response rating: 0
Giant foxtail; [4]
  Giant foxtail plant response rating: 0
Giant foxtail; Rate 250 g/ha, Postemergence
  Plant response rating (0 to 10; 0 is no effect, 10 is complete control), Giant foxtail: 0
Giant foxtail; [5]
  Giant foxtail plant response rating: 0
rice; [8]
  Rice plant response rating: 0
rice; [9]
  Rice plant response rating: 0
rice; [10]
  Rice plant response rating: 0
rice; [11]
  Rice plant response rating: 0
Wild oat; [1]
  Wild oats plant response rating: 0
Wild oat; [6]
  Wild oats plant response rating: 0
Wild oat; [2]
  Plant response rating, Wild oats: 0
Wild oat; [3]
  Wild oats plant response rating: 0
Wild oat; [7]
  Wild oats plant response rating: 0
Wild oat; [4]
  Wild oats plant response rating: 0
Wild oat; Rate 250 g/ha, Postemergence
  Plant response rating (0 to 10; 0 is no effect, 10 is complete control), Wild oats: 0
Wild oat; [5]
  Wild oats plant response rating: 0
corn; [1]
  Corn plant response rating: 0
corn; [6]
  Corn plant response rating: 0
corn; [2]
  Plant response rating, Corn: 0
corn; [3]
  Corn plant response rating: 0
corn; [7]
  Corn plant response rating: 0
corn; [4]
  Corn plant response rating: 0
corn; Rate 250 g/ha, Postemergence
  Plant response rating (0 to 10; 0 is no effect, 10 is complete control), Corn: 0
corn; [5]
  Corn plant response rating: 0
bamyardgrass; [8]
  Barnyardgrass plant response rating: 0
bamyardgrass; [9]
  Barnyardgrass plant response rating: 0
bamyardgrass; [10]
  Barnyardgrass plant response rating: 0
bamyardgrass; [11]
  Barnyardgrass plant response rating: 0
wheat; [1]
  Wheat plant response rating: 0
wheat; [6]
  Wheat plant response rating: 0
wheat; [2]
  Plant response rating, Wheat: 0
wheat; [3]
  Wheat plant response rating: 0
wheat; [7]
  Wheat plant response rating: 0
wheat; [4]
  Wheat plant response rating: 0
wheat; Rate 250 g/ha, Postemergence
  Plant response rating (0 to 10; 0 is no effect, 10 is complete control), Wheat: 0
wheat; [5]
  Wheat plant response rating: 0
Sugar beet; [1]
  Sugarbeets plant response rating: 0
Sugar beet; [6]
  Sugarbeets plant response rating: 0
Sugar beet; [2]
  Plant response rating, Sugarbeets: 0
Sugar beet; [3]
  Sugarbeets plant response rating: 0
Sugar beet; [7]
  Sugarbeets plant response rating: 0
Sugar beet; [4]
  Sugarbeets plant response rating: 0
Sugar beet; Rate 250 g/ha, Postemergence
  Plant response rating (0 to 10; 0 is no effect, 10 is complete control), Sugarbeets: 0
Sugar beet; [5]
  Sugarbeets plant response rating: 0

From US6737383B1, “Herbicidal oxadiazolidines” (priority 1999, dated 2004)
